{
  "source": "patent EP2018866A1",
  "about": "“Pharmaceutical compositions containing voriconazole” (SANDOZ AG, priority 2007, dated 2009)",
  "origin": "cited, not measured here",
  "note": "Read-outs that look alike come from different tables or passages of the source.",
  "data": [
    {"smiles": "C[C@@H](c1ncncc1F)[C@](O)(Cn1cncn1)c1ccc(F)cc1F", "note": "[Voriconazole, (2R,3S)-2-(2,4-Difluorophenyl)-3-(5-fluoro-4-pyrimidinyl)-1-(1H-1,2,4-triazol-1-yl)-butan-2-ol]", "values": [
      {"measurement": "aqueous solubility", "setting": "at a pH 3", "value": 200, "unit": "µg/mL"},
      {"measurement": "aqueous solubility", "setting": "at a pH 7", "value": 610, "unit": "µg/mL"}
    ]}
  ]
}
